The text below walks through data of US20240018198A1, “MU-DIGUETOXIN-DC1A VARIANT POLYPEPTIDES FOR PEST CONTROL” (Vestaron Corporation, priority 2020, published 2024).

Assay [1] concerns Adult houseflies (Musca domestica). In words: Housefly injection assay with plant-expressed proteins (TSP extract). The assay is classed as in vivo. The following applies: 2 hours post-injection; 0.5 μL TSP extract per fly; impacted = knock-down and dead. On the procedure:
Full length DVP-insecticidal protein was purified from the tobacco by using a manual extraction technique. Leaf tissue was obtained via 30 mm diameter punch, from the infiltrated area, rolled up and placed inside a 2 mL conical bottom tube with two, 5/32 inch diameter stainless steel grinding balls, and frozen in liquid nitrogen. The samples were then homogenized using a Troemner-Talboys High Throughput Homogenizer. Next, a 750 μL ice-cold total soluble protein (TSP) extraction solution (sodium phosphate solution 50 mM, EDTA 1 mM, pH 7.0) was added into the tube and vortexed. The microtube was then left to incubate at room temperature for 15 minutes, and then centrifuged at 16,000×g for 15 minutes at 4° C. Next, 100 μL of the resulting supernatant was taken and loaded into pre-Sephadex G-50-packed column in 0.45 μm Millipore MultiScreen filter microtiter plate with empty receiving Costar microtiter plate on bottom. The microtiter plates were then centrifuged at 800 g for 2 minutes at 4° C. The resulting filtrate solution (hereinafter “total soluble protein extract” or “TSP extract”) of the tobacco leaves, was ready for downstream analysis.
Houseflies were injected with the TSP extract obtained from the plant extraction process described above. Prior to injection, adult houseflies (Musca domestica) were immobilized with CO2, and selected for injection based on weight (12-20 mg). […] Impacted scores include knock-down and dead.

The subject of assay [2] is Corn earworm (Helicoverpa zea). In words: Screen for mutants improving CEW activity (injection of concentrated supernatants). The assay is classed as in vivo. As for the experimental part: Mutations of Dc1a were made to screen for recovery of CEW activity. Here, mutants were synthesized and cloned according the methods described above. […] Supernatants were combined and concentrated 10× using centrifugal filtration cassettes (Pall) with a 3000 Da molecular weight cutoff. Concentrates were then injected into Corn earworm (Helicoverpa zea).
Corn earworm (CEW) larvae were injected in their fourth instar. Eggs of H zea were purchased (Benzon Research, 7 Kuhn Dr, Carlisle, PA, 17015) and reared to fourth instar on General Purpose Lepidoptera Diet (Frontier Agricultural Science, Newark, DE). Prior to injection larvae were weighed in order to calculate μmol/g doses. Injections volumes are 1 μL, and were performed with a 30 gauge needle and glass syringe in a hand microapplicator (Burkard, Rickmansworth, Herts, England). The injection site was near the base of one of the hindmost prolegs. Following the injection, larvae are placed in a new enclosure with General Purpose Lepidoptera Diet and their condition (including mortality, sublethal effects, and behavior) is evaluated 24-hours post-injection.

linker = not defined here; ERSP = not defined here

Regarding “M1: plant-expressed DVP-insecticidal protein ERSP-UBI-L-DVP-HIS, DVP SEQ ID NO 187 ({ERSP-ubiquitin-linker}-AKDGDVEGPAGCKKYDVECDSGECCQKQYLWSKWRALDCRCLKSGFFSSKCVCRDV-{His tag}; cysteine pairing not given here; reading uncertain)”, the “% Impacted” value in assay [1] came out at 60%.

In the case of “M4: plant-expressed DVP-insecticidal protein ERSP-UBI-L-DVP-HIS, DVP SEQ ID NO 190 ({ERSP-ubiquitin-linker}-AKDGDVEGPAGCKKYDVECDSGECCQKQYLFSKWRPLDCRCLKSGFFSSKCVCRDV-{His tag}; cysteine pairing not given here; reading uncertain)”, in assay [1], the “% Impacted” value worked out at 100%. As to “M2: plant-expressed DVP-insecticidal protein ERSP-UBI-L-DVP-HIS, DVP SEQ ID NO 188 ({ERSP-ubiquitin-linker}-AKDGDVEGPAGCKKYDVECDSGECCQKQYLWKKWRALDCRCLKSGFFSSKCVCRDV-{His tag}; cysteine pairing not given here; reading uncertain)”, the “% Impacted” value in assay [1] turned out to be 60%. Take “C41K/C51E/D38A/L42V: Mu-diguetoxin-Dc1a variant polypeptide; printed sequences differ at position 41 (D in Table 1, K in Table 9) (AKDGDVEGPAGCKKYDVECDSGECCQKQYLWYKWRPLACRKVKSGFFSSKEVCRDV; C41K/ C51E/ D38A/ L42V DVP)”: in assay [2] (Table 9: CEW fourth instar, 10x concentrated supernatants, 1 μL injection, 24 hours), the Activity result was “Yes”. In assay [2] (Table 10: category relative to WT), the “CEW KD50” value is reported as “Reduced (Reduced=>1.5)”. As to “M3: plant-expressed DVP-insecticidal protein ERSP-UBI-L-DVP-HIS, DVP SEQ ID NO 189 ({ERSP-ubiquitin-linker}-AKDGDVEGPAGCKKYDVECDSGECCQKQYLWHKWRALDCRCLKSGFFSSKCVCRDV-{His tag}; cysteine pairing not given here; reading uncertain)”, in assay [1], the “% Impacted” value was found to be 80%.
